In patent US10150760B2, “Compounds for use in preparing heterocyclic triazole agonists of the APJ receptor” (AMGEN INC., priority 2016, dated 2018):

These compounds were tested against human APJ receptor (Homo sapiens (Human), UniProt P35414) (assay: [35S]GTPγS binding assay on membranes from CHO cells stably expressing human APJ receptor). Conditions: read-out: Activity hAPJ SPA EC50 IP.
Format: biochemical
Summary of the method: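 Membranes from CHO cells stably expressing human APJ incubated with ligand, 0.2 nM [35S]GTPγS and WGA SPA beads in HEPES pH 7.5 with 5 mM MgCl2, 200 mM NaCl, 3 μM GDP, 90 min at RT. Nonspecific binding defined with 100 μM GTPγS; EC50 by non-linear regression.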

human APJ receptor, sequence (P35414 whole entry): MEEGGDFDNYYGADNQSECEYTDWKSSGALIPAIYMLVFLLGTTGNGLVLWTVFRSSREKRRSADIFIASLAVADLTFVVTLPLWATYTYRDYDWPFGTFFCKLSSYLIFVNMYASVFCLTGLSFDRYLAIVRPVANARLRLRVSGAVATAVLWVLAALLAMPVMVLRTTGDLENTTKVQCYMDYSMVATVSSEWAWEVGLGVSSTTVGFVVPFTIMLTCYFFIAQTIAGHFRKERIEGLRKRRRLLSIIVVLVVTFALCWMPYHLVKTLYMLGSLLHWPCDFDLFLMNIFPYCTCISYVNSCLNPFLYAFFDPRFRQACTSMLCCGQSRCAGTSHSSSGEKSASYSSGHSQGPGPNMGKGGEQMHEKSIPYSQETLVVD

| Compound | EC50 [nM] |
| --- | --- |
| COc1ncnc(OC)c1-n1c(NS(=O)(=O)[C@@H](C)[C@@H](OC(C)C)c2ncc(Cl)cn2)nnc1[C@H]1CCC(C)(C)O1 (single isomer, unassigned) [Example 280.0, (1S,2S)-1-(5-chloropyrimidin-2-yl)-N-(4-(4,6-dimethoxypyrimidin-5-yl)-5-((R)-5,5-dimethyltetrahydrofuran-2-yl)-4H-1,2,4-triazol-3-yl)-1-isopropoxypropane-2-sulfonamide or (1S,2S)-1-(5-chloropyrimidin-2-yl)-N-(4-(4,6-dimethoxypyrimidin-5-yl)-5-((S)-5,5-dimethyltetrahydrofuran-2-yl)-4H-1,2,4-triazol-3-yl)-1-isopropoxypropane-2-sulfonamide] | 7.5 |
| COCC1(n2c(NS(=O)(=O)[C@@H](C)[C@H](OC)c3ncc(Cl)cn3)nnc2[C@H]2COCCO2)CC1 (mixture of isomers) [Example 304.0, (1R,2S)-N-(5-((S)-1,4-dioxan-2-yl)-4-(1-(methoxymethyl)cyclopropyl)-4H-1,2,4-triazol-3-yl)-1-(5-chloropyrimidin-2-yl)-1-methoxypropane-2-sulfonamide and (1R,2S)-N-(5-((R)-1,4-dioxan-2-yl)-4-(1-(methoxymethyl)cyclopropyl)-4H-1,2,4-triazol-3-yl)-1-(5-chloropyrimidin-2-yl)-1-methoxypropane-2-sulfonamide] | 210 |
| COc1cccc(OC)c1-n1c(NS(=O)(=O)[C@@H](C)[C@H](OC)c2ncc(Cl)cn2)nnc1[C@H]1CCC(=O)N1C (single isomer, unassigned) [Example 406.0, (1R,2S)-1-(5-chloropyrimidin-2-yl)-N-(4-(2,6-dimethoxyphenyl)-5-((R)-1-methyl-5-oxopyrrolidin-2-yl)-4H-1,2,4-triazol-3-yl)-1-methoxypropane-2-sulfonamide or (1R,2S)-1-(5-chloropyrimidin-2-yl)-N-(4-(2,6-dimethoxyphenyl)-5-((S)-1-methyl-5-oxopyrrolidin-2-yl)-4H-1,2,4-triazol-3-yl)-1-methoxypropane-2-sulfonamide] | 1080 |
| COc1ncnc(OC)c1-n1c(NS(=O)(=O)[C@@H](C)[C@H](C)c2ncc(F)cn2)nnc1[C@@H]1COCCO1 (single isomer, unassigned) [Example 278.0, (2S,3R)-N-(4-(4,6-dimethoxypyrimidin-5-yl)-5-((R)-1,4-dioxan-2-yl)-4H-1,2,4-triazol-3-yl)-3-(5-fluoropyrimidin-2-yl)butane-2-sulfonamide or (2S,3R)-N-(4-(4,6-dimethoxypyrimidin-5-yl)-5-((S)-1,4-dioxan-2-yl)-4H-1,2,4-triazol-3-yl)-3-(5-fluoropyrimidin-2-yl)butane-2-sulfonamide] | 510 |
| (1R,2S)-N-(5-((R)-2,3-dihydrobenzofuran-2-yl)-4-(4,6-dimethoxypyrimidin-5-yl)-4H-1,2,4-triazol-3-yl)-1-methoxy-1-(5-methylpyrimidin-2-yl)propane-2-sulfonamide or (1R,2S)-N-(5-((S)-2,3-dihydrobenzofuran-2-yl)-4-(4,6-dimethoxypyrimidin-5-yl)-4H-1,2,4-triazol-3-yl)-1-methoxy-1-(5-methylpyrimidin-2-yl)propane-2-sulfonamide [Example 233.0] | 1270 |
| (1R,2S)-1-(5-chloropyrimidin-2-yl)-N-(4-(2,6-dimethoxyphenyl)-5-((3aR,6aR)-hexahydro-3aH-cyclopenta[b]furan-3a-yl)-4H-1,2,4-triazol-3-yl)-1-methoxypropane-2-sulfonamide or (1R,2S)-1-(5-chloropyrimidin-2-yl)-N-(4-(2,6-dimethoxyphenyl)-5-((3aS,6aS)-hexahydro-3aH-cyclopenta[b]furan-3a-yl)-4H-1,2,4-triazol-3-yl)-1-methoxypropane-2-sulfonamide [Example 346.0] | 780 |
| COc1cccc(OC)c1-n1c(NS(=O)(=O)[C@@H](C)[C@H](C)c2ncc(C)cn2)nnc1[C@H]1CCOC1 (single isomer, unassigned) [Example 54.0, (2S,3R)-N-(4-(2,6-dimethoxyphenyl)-5-((R)-tetrahydrofuran-3-yl)-4H-1,2,4-triazol-3-yl)-3-(5-methylpyrimidin-2-yl)butane-2-sulfonamide or (2S,3R)-N-(4-(2,6-dimethoxyphenyl)-5-((S)-tetrahydrofuran-3-yl)-4H-1,2,4-triazol-3-yl)-3-(5-methylpyrimidin-2-yl)butane-2-sulfonamide] | 37 |
| COc1cccc(OC)c1-n1c(NS(=O)(=O)CCc2ccc(F)cc2C#N)nnc1[C@@H]1CCOC1 [Example 345.0, (S)-2-(2-cyano-4-fluorophenyl)-N-(4-(2,6-dimethoxyphenyl)-5-(tetrahydrofuran-3-yl)-4H-1,2,4-triazol-3-yl) ethanesulfonamide] | 100 |
| (1S,2S)-1-isopropoxy-1-(5-methylpyrazin-2-yl)-N-(5-((2S,5S)-5-methyltetrahydrofuran-2-yl)-4-(tetrahydro-2H-pyran-4-yl)-4H-1,2,4-triazol-3-yl)propane-2-sulfonamide or (1S,2S)-1-isopropoxy-1-(5-methylpyrazin-2-yl)-N-(5-((2R,5R)-5-methyltetrahydrofuran-2-yl)-4-(tetrahydro-2H-pyran-4-yl)-4H-1,2,4-triazol-3-yl)propane-2-sulfonamide [Example 263.0] | 460 |
| COc1cccc(OC)c1-n1c(NS(=O)(=O)[C@@H](C)[C@H](OC)c2ncc(Cl)cn2)nnc1[C@H]1CCCCO1 (single isomer, unassigned) [Example 83.0, (1R,2S)-1-(5-chloropyrimidin-2-yl)-N-(4-(2,6-dimethoxyphenyl)-5-((S)-tetrahydro-2H-pyran-2-yl)-4H-1,2,4-triazol-3-yl)-1-methoxypropane-2-sulfonamide or (1R,2S)-1-(5-chloropyrimidin-2-yl)-N-(4-(2,6-dimethoxyphenyl)-5-((R)-tetrahydro-2H-pyran-2-yl)-4H-1,2,4-triazol-3-yl)-1-methoxypropane-2-sulfonamide] | 10 |
| COCCn1c(NS(=O)(=O)[C@@H](C)[C@H](OC)c2ncc(Cl)cn2)nnc1[C@H]1CCC(C)(C)O1 (single isomer, unassigned) [Example 288.0, (1R,2S)-1-(5-chloropyrimidin-2-yl)-N-(5-((R)-5,5-dimethyltetrahydrofuran-2-yl)-4-(2-methoxyethyl)-4H-1,2,4-triazol-3-yl)-1-methoxypropane-2-sulfonamide or (1R,2S)-1-(5-chloropyrimidin-2-yl)-N-(5-((S)-5,5-dimethyltetrahydrofuran-2-yl)-4-(2-methoxyethyl)-4H-1,2,4-triazol-3-yl)-1-methoxypropane-2-sulfonamide] | 410 |
| COc1cccc(OC)c1-n1c(NS(=O)(=O)[C@@H](C)[C@H](C)c2ccc(Cl)cn2)nnc1C1CCOC1 (single isomer, unassigned) [Example 410.0] | 19 |
| CO[C@H](c1ncc(Cl)cn1)[C@H](C)S(=O)(=O)Nc1nnc([C@@H]2COCCO2)n1C1(C)CC1 (single isomer, unassigned) [Example 272.0, (1R,2S)-N-(5-((R)-1,4-dioxan-2-yl)-4-(1-methylcyclopropyl)-4H-1,2,4-triazol-3-yl)-1-(5-chloropyrimidin-2-yl)-1-methoxypropane-2-sulfonamide or (1R,2S)-N-(5-((S)-1,4-dioxan-2-yl)-4-(1-methylcyclopropyl)-4H-1,2,4-triazol-3-yl)-1-(5-chloropyrimidin-2-yl)-1-methoxypropane-2-sulfonamide] | 1010 |
